Measurements: BindingDB's records for doi:10.1021/acsmedchemlett.9b00051 (Ajinomoto, 2019)

Columns and labels:
[1] = Positive allosteric modulator activity at human T1R2/T1R3 expressed in PEAKrapid cells assessed as potentiation of sucrose-induced intracellular calcium influx by measuring sucrose EC50 at 30 uM measured for 120 secs by fluorescence based assay (Rvb = 31.7 mM)
[2] = Positive allosteric modulator activity at human T1R2/T1R3 expressed in PEAKrapid cells assessed as potentiation of sucrose-induced intracellular calcium influx by measuring sucrose EC50 at 50 uM measured for 120 secs by fluorescence based assay (Rvb = 31.7 mM)

Row | SMILES | EC50 [1] | EC50 [2]
1 | CC[C@H](C)[C@H](N)C(=O)NCc1ccc(-c2cncc(C(=O)O)c2N)o1 | 10 mM | –
2 | CC(C)CNC(=O)NCc1ccc(-c2cncc(C(=O)O)c2N)o1 | 21.6 mM | –
3 | CC(C)C[C@@H](CC(=O)Nc1cncc(C(=O)O)c1N)NC(=O)[C@@H](N)C1CCCCC1 | 22.7 mM | –
4 | Nc1c(NC(=O)CC[C@H](Cc2ccccc2)NC(=O)[C@@H](N)C2CCCCC2)cncc1C(=O)O | 8.5 mM | –
5 | CC(C)(CC(=O)Nc1cncc(C(=O)O)c1N)NC(=O)[C@@H](N)C1CCCCC1 | 2.2 mM | –
6 | CC(C)[C@H](N)C(=O)NCc1ccc(-c2cncc(C(=O)O)c2N)o1 | 14.6 mM | –
7 | CC(C)[C@@H](CC(=O)Nc1cncc(C(=O)O)c1N)NC(=O)[C@@H](N)C1CCCCC1 | 18.4 mM | –
8 | Nc1c(NC(=O)CCCCNC(=O)[C@@H](N)C2CCCCC2)cncc1C(=O)O | 7.8 mM | –
9 | Nc1c(C(=O)O)cncc1-c1ccco1 | – | 16.8 mM
10 | CC(C)(C)OC(=O)NCc1ccc(-c2cncc(C(=O)O)c2N)o1 | 24.5 mM | –
11 | Cc1nc2ccccc2c(N)c1C(=O)O | 15.9 mM | –

Further lines, results first:

Row | EC50 [1] | EC50 [2] | SMILES
12 | 22.1 mM | – | CC(C)C(=O)NCc1ccc(-c2cncc(C(=O)O)c2N)o1
13 | 18.3 mM | – | CC(C)CC(=O)NCc1ccc(-c2cncc(C(=O)O)c2N)o1
14 | 10.2 mM | – | C[C@@H](CC(=O)Nc1cncc(C(=O)O)c1N)NC(=O)[C@@H](N)C1CCCCC1
15 | 20.2 mM | – | Nc1c(NC(=O)CCCCCCNC(=O)[C@@H](N)C2CCCCC2)cncc1C(=O)O
16 | 16.2 mM | – | Nc1c(NC(=O)CCCNC(=O)[C@@H](N)C2CCCCC2)cncc1C(=O)O
17 | – | 21 mM | Nc1c(C(=O)O)cncc1-c1cccs1
18 | 26.5 mM | – | CC(C)CNC(=O)C(=O)NCc1ccc(-c2cncc(C(=O)O)c2N)o1
19 | – | 21.5 mM | Nc1c(C(=O)O)cncc1-c1ccccc1
20 | 8.9 mM | – | CC[C@H](C)[C@@H](CCC(=O)Nc1cncc(C(=O)O)c1N)NC(=O)[C@@H](N)C1CCCCC1
21 | 11.1 mM | – | CC(C)C[C@H](N)C(=O)NCc1ccc(-c2cncc(C(=O)O)c2N)o1
22 | 10.5 mM | – | CC(C)[C@@H](CCC(=O)Nc1cncc(C(=O)O)c1N)NC(=O)[C@@H](N)C1CCCCC1
23 | 27.1 mM | – | CC(=O)NCc1ccc(-c2cncc(C(=O)O)c2N)o1
24 | 5.8 mM | – | Nc1c(C(=O)O)cncc1-c1ccc(CNC(=O)[C@@H](N)C2CCCCC2)o1
25 | 0.6 mM | – | Cc1nc2cccc(OCC(C)(C)C(=O)NC(C)C)c2c(N)c1C(=O)O
